Assay results from US10159672B2 (PARION SCIENCES, INC., priority 2011, dated 2018).

Assays:
[1] = tested on: Human Bronchial Epithelial; assay: Metabolism by human bronchial epithelial cells; assay type: in vitro ADME; conditions: apical or basolateral
Experimental: Airway epithelial cells have the capacity to metabolize drugs during the process of transepithelial absorption. Further, although less likely, it is possible that drugs can be metabolized on airway epithelial surfaces by specific ectoenzyme activities. Perhaps more likely as an ecto-surface event, compounds may be metabolized by the infected secretions that occupy the airway lumens of patients with lung disease, e.g. cystic fibrosis. Thus, a series of assays is performed to characterize the compound metabolism that results from the interaction of test compounds with human airway epithelia and/or human airway epithelial lumenal products.
In the first series of assays, the interaction of test compounds in KBR as an “ASL” stimulant are applied to the apical surface of human airway epithelial cells grown in the T-Col insert system. For most compounds, metabolism (generation of new species) is tested for using high performance liquid chromatography (HPLC) to resolve chemical species and the endogenous fluorescence properties of these compounds to estimate the relative quantities of test compound and novel metabolites. […] In instances where the fluorescence properties of the test molecule are not adequate for such characterizations, radiolabeled compounds are used for these assays. […]

[2] = Clearance from the ocular surface (extraction from PRT threads, UPLC); assay type: in vivo, Rats, Sprague Dawley
Experimental: Procedure for P-1046 (Compound 15 Formula I, aka I, aka P-1046, aka 1046): […]
Extraction from PRT Threads:
All PRT threads were collected in eppendorf tubes and stored at −20 C until the time of drug concentration analysis. P-1046 was extracted from threads and analyzed as follows:
(§1) • 1. 200 μL of 70% ACN (70% ACN, 30% H2O) was added into sample tubes which have threads in them. • 2. Tubes from Step 1 were vortexed for 30 seconds and sonicated for 1 minute to fully immerse the threads. • 3. The sample solutions were incubated for 4 hours at room temperature. • 4. Samples were vortexed again for 30 seconds. • 5. 75 μL, of the each sample solution (from step 4) was removed into 96-well UPLC plate with an additional 75 μL of mobile phase A (5 mM ammonium formate, 0.1% formic acid in H2O) added into each sample well. • 6. Analytical standards (10 mM, 1 mM, 100 µM, 10 µM, 1 µM, 100 nM, Buffer) were prepared identically to the thread solutions. • 7. Drug concentrations from all samples were analyzed by UPLC. Solubility and Stability Testing for Compound 15 (Formula I, aka I, aka P-1046, aka 1046): Procedure for Solubility and Stability Evaluation: • 1. Prepare 2.8% NaCl and 25 mM citrate buffer, pH of the solution 4.2. The osmolality of the solution is approximately 940 mOsM. • 2. Add appropriate amount of buffer solution to a test compound to make approximate concentration of 10 mg/mL. • 3. Vortex the solution for 15 seconds, sonicate for 30 seconds, again vortex for 60 seconds and visually observe the solution. • 4. Calculate final concentration of the solution by a spectrophotometer. • Remove a portion of solution and dilute it to 1:10 ratio. Put this solution at 50° C. for the accelerated stability study for 10 days. • Obtain stability data by HPLC analysis • 5. Prepare 2.8% NaCl and 25 mM citrate buffer, pH of the solution 4.2. The osmolality of the solution is approximately 940 mOsM. • 6. Add appropriate amount of buffer solution to a test compound to make approximate concentration of 10 mg/mL. • 7. […]

[3] = Solubility and accelerated stability in citrate buffer; assay type: physicochemical; conditions: pH 4.2 citrate buffer with 2.8% NaCl
Experimental: as §1, with “ratio.” for “ratio. Put this solution at 50° C. for the accelerated stability study for 10 days. • Obtain stability data by HPLC analysis • 5. Prepare 2.8% NaCl and 25 mM citrate buffer, pH of the solution 4.2. The osmolality of the solution is approximately 940 mOsM. • 6. Add appropriate amount of buffer solution to a test compound to make approximate concentration of 10 mg/mL. • 7.”

CN(C)C(=O)[C@H](CCCCNC(=N)N)NC(=O)[C@H](CCc1ccc(CCCCNC(=N)NC(=O)c2nc(Cl)c(N)nc2N)cc1)N(C)C [Compound I, 3,5-diamino-6-chloro-N-(N-(4-(4-((S)-3-(dimethylamino)-4-((S)-1-(dimethylamino)-6-guanidino-1-oxohexan-2-ylamino)-4-oxobutyl)phenyl)butyl)carbamimidoyl)pyrazine-2-carboxamide]
Metabolism by Human Bronchial Epithelial [1]: No metabolites detected
Clearance from the ocular surface, profile ([2]; all concentrations tested): apparent bi-phasic clearance
Concentration on ocular surface during the slow clearance phase vs IC50 ([2]; dosed concentration >1 mM, 30 to 120 minutes post-dose): well above the IC50
Time by which the majority of the drug is cleared from the ocular surface ([2]; post-dose, followed by slow clearance phase 30 to 120 minutes): ≤ 30 min
Stability (HPLC), degradation ([3]; 10 days at 50° C.): No degradation
solubility ([3]; aqueous buffer, thermodynamic from solid, highest concentration tested): ≥ 8800 µg/mL
